The record followed here is patent EP3057951B1, “METHYLENE LINKED QUINOLINYL MODULATORS OF ROR-GAMMA-T” (Janssen Pharmaceutica NV, priority 2013, dated 2015).

Counter-ions that a name gives are not always drawn.

Broadly, the Kd is the free concentration of one partner at which half of the binding sites on the other are occupied at equilibrium, for simple one-to-one binding. In general, IC50 refers to the concentration that inhibits the measured activity by half.

The target in experiment [1] is T1, wild type human RORγt ligand binding domain (RORyt LBD) (Homo sapiens, UniProt P51449).
T1 construct: His-tag (N); TurboTEV protease cleavage site (ENLYFQG) (N); made in house; host or cells: E. coli (pHIS1, modified pET vector)
T1 sequence (P51449 258-518): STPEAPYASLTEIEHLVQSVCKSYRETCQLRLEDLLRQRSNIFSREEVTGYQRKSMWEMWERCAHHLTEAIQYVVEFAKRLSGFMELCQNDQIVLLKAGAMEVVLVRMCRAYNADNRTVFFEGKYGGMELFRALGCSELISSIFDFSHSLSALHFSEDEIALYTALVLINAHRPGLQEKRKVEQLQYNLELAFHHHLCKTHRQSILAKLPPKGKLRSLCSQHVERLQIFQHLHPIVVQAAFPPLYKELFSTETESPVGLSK
Kind of experiment: RORγt ThermoFluor assay (thermal shift, binding affinity KD).

For experiment [2], the target named is T2, wild type human RORγt LBD (Homo sapiens, UniProt P51449).
T2 construct: expressed in transfected cells; host or cells: HEK293T
T2 sequence (P51449 258-518): T1 sequence (P51449 258-518)
The experiment is described as follows: RORγt (LBD) Reporter Assay (GAL4-luciferase, HEK293T cells). Format: cell-based. The note with it: HEK293T cells; for inhibition at 6 µM: HEK-293T, read-out: RORγt (LBD) Reporter Assay, % inhibition @ 6 µM, 6 µM compound concentration. Background: Reporter assays use an easily measured gene product as a stand-in for the process of interest.

Turning to `COc1nc2ccc(C(O)(c3ccc(C)nc3C)C3CN(C(=O)OC(C)(C)C)C3)cc2c(Cl)c1Cc1ccc(C(F)(F)F)cc1` (centres unmarked) [Example 125, tert-Butyl-3-((4-chloro-2-methoxy-3-(4-(trifluoromethyl)benzyl)quinolin-6-yl)(2,6-dimethylpyridin-3-yl)(hydroxy)methyl)azetidine-1-carboxylate], in experiment [1], the Kd worked out at 9.4 nM. Further, in experiment [2], half-maximal inhibition (IC50) required 290 nM and the inhibition at 6 µM came to 100%.

As for `COCCN(C)c1nc2ccc(C(O)(c3ccc(Cl)cc3)c3cncn3C)cc2c(Cl)c1Cc1ccc(-n2cccn2)cc1` (centres unmarked) [Example 127, {4-Chloro-2-[(2-methoxyethyl)(methyl)amino]-3-[4-(1H-pyrazol-1-yl)benzyl]quinolin-6-yl}(4-chlorophenyl)(1-methyl-1H-imidazol-5-yl)methanol], the Kd in experiment [1] worked out at 350 nM. Moreover, in experiment [2], the IC50 is 240 nM and the inhibition at 6 µM was 101%.

As for `CON(C)c1nc2ccc(C(O)(c3ccc(C(F)(F)F)nc3)c3cncn3C)cc2c(N(C)OC)c1Cc1ccc(-n2cccn2)cc1` (centres unmarked) [Example 129, {2,4-Bis[methoxy(methyl)amino]-3-[4-(1H-pyrazol-1-yl)benzyl]quinolin-6-yl}(1-methyl-1H-imidazol-5-yl)[6-(trifluoromethyl)pyridin-3-yl]methanol], the Kd in experiment [1] stood at 1700 nM. Further, in experiment [2], 1500 nM corresponded to half-maximal inhibition (IC50) and the inhibition at 6 µM turned out to be 110%.

For the molecule `Cn1cncc1C(O)(c1ccc2nc(Cl)c(Cc3ccc(-n4cccn4)cc3)c(Cl)c2c1)c1ncccn1` (centres unmarked) [Example 130, {2,4-Dichloro-3-[4-(1H-pyrazol-1-yl)benzyl]quinolin-6-yl}(1-methyl-1H-imidazol-5-yl)pyrimidin-2-ylmethanol.TFA], in experiment [1], the Kd is 640 nM. In experiment [2], 510 nM corresponded to half-maximal inhibition (IC50) and the inhibition at 6 µM turned out to be 94%.

Consider `CN(C)c1nc2ccc(C(O)(c3ccc(C(F)(F)F)nc3)c3cncn3C)cc2c(Cl)c1Cc1ccc(-n2cccn2)cc1` (centres unmarked) [Example 132, {4-Chloro-2-(dimethylamino)-3-[4-(1H-pyrazol-1-yl)benzyl]quinolin-6-yl}(1-methyl-1H-imidazol-5-yl)[6-(trifluoromethyl)pyridin-3-yl]methanol], for which the dissociation constant (Kd) in experiment [1] amounted to 36 nM. Further, in experiment [2], the IC50 came to 45 nM and the inhibition at 6 µM stood at 108%.

As to `Cn1cncc1C(O)(c1ccc(C(F)(F)F)nc1)c1ccc2nc(N3CC(F)(F)C3)c(Cc3ccc(-n4cccn4)cc3)c(Cl)c2c1` (centres unmarked) [Example 135a, {4-Chloro-2-(3,3-difluoroazetidin-1-yl)-3-[4-(1H-pyrazol-1-yl)benzyl]quinolin-6-yl}(1-methyl-1H-imidazol-5-yl)[6-(trifluoromethyl)pyridin-3-yl] methanol.TFA], the Kd in experiment [1] was determined as 36 nM. Besides, in experiment [2], the IC50 came out at 270 nM and the inhibition at 6 µM worked out at 97%.

For `Cc1cc(C(O)(c2ccc(Cl)cc2)c2cncn2C)cc2c(Cl)c(Cc3ccc(-n4cccn4)cc3)c(N3CCC3)nc12` (centres unmarked) [Example 136a], the Kd in experiment [1] stood at 150 nM. In experiment [2], half-maximal inhibition (IC50) required 140 nM and the inhibition at 6 µM was 94%.

On to `Cc1cc(C(O)(c2ccc(C(F)(F)F)nc2)c2cncn2C)cc2c(Cl)c(Cc3ccc(-n4cccn4)cc3)c(N3CCC3)nc12` (centres unmarked) [Example 137a, {2-Azetidin-1-yl-4-chloro-8-methyl-3-[4-(1H-pyrazol-1-yl)benzyl]quinolin-6-yl}(1-methyl-1H-imidazol-5-yl)[6-(trifluoromethyl)pyridin-3-yl]methanol], for which, in experiment [1], the equilibrium dissociation constant (Kd) came to 9 nM. In experiment [2], 170 nM corresponded to half-maximal inhibition (IC50) and the inhibition at 6 µM came out at 97%.

As for `Cn1cncc1C(O)(c1ccc(Cl)cc1)c1ccc2nc(N3CCC3)c(Cc3ccc(-n4cccn4)cc3)c(Cl)c2c1` (centres unmarked) [Example 138a, {2-Azetidin-1-yl-4-chloro-3-[4-(1H-pyrazol-1-yl)benzyl]quinolin-6-yl}(4-chlorophenyl)(1-methyl-1H-imidazol-5-yl)methanol], the Kd in experiment [1] was determined as 130 nM. Also, in experiment [2], half-maximal inhibition (IC50) required 130 nM and the inhibition at 6 µM came to 98%.

Turning to `Cc1ccc(C(O)(c2ccc3nc(Cl)c(Cc4ccc(C(F)(F)F)cc4)c(Cl)c3c2)c2cnnn2C)c(C)n1` (centres unmarked) [Example 139], in experiment [1], the Kd amounted to 0.14 nM. Also, in experiment [2], the IC50 stood at 20 nM and the inhibition at 6 µM came to 98%.

Take `Cc1ccc(C(O)(c2ccc3nc(N4CCC4)c(Cc4ccc(C(F)(F)F)cc4)c(Cl)c3c2)c2cnnn2C)c(C)n1` (centres unmarked) [Example 140a, {2-Azetidin-1-yl-4-chloro-3-[4-(trifluoromethyl)benzyl]quinolin-6-yl}(2,6-dimethylpyridin-3-yl)(1-methyl-1H-1,2,3-triazol-5-yl)methanol]: the dissociation constant Kd in experiment [1] is 0.19 nM. In experiment [2], the midpoint of inhibition, the IC50, lay at 22 nM and the inhibition at 6 µM turned out to be 99%.

Turning to `Cc1ccc(C(O)(c2ccc3nc(N4CCC4)c(Cc4ccc(-n5cccn5)cc4)c(Cl)c3c2)c2cnnn2C)c(C)n1` (centres unmarked) [Example 141a, {2-Azetidin-1-yl-4-chloro-3-[4-(1H-pyrazol-1-yl)benzyl]quinolin-6-yl}(2,6-dimethylpyridin-3-yl)(1-methyl-1H-1,2,3-triazol-5-yl)methanol], the Kd in experiment [1] is 11000 nM. Moreover, in experiment [2], the IC50 is above 6000 nM and the inhibition at 6 µM was determined as 42%.

Turning to `Cc1cc(C(O)(c2ccc(Cl)cc2)c2cncn2C)cc2c(Cl)c(Cc3ccc(-n4cccn4)cc3)c(S(C)(=O)=O)nc12` (centres unmarked) [Example 142, {4-Chloro-8-methyl-2-(methylsulfonyl)-3-[4-(1H-pyrazol-1-yl)benzyl]quinolin-6-yl}(4-chlorophenyl)(1-methyl-1H-imidazol-5-yl)methanol], the Kd in experiment [1] amounted to 1500 nM. In addition, in experiment [2], the IC50 was 1600 nM and the inhibition at 6 µM was determined as 87%.

For `Cc1ccc(C(O)(c2ccc3nc(NC4CC4)c(Cc4ccc(C(F)(F)F)cc4)c(Cl)c3c2)c2cnnn2C)c(C)n1` (centres unmarked) [Example 143a, {4-Chloro-2-(cyclopropylamino)-3-[4-(trifluoromethyl)benzyl]quinolin-6-yl}(2,6-dimethylpyridin-3-yl)(1-methyl-1H-1,2,3-triazol-5-yl)methanol], the Kd in experiment [1] was determined as 7.2 nM. Also, in experiment [2], the inhibition at 6 µM stood at 101%.

In the case of `Cc1ccc(C(O)(c2ccc3nc(Cl)c(Cc4ccc(C(F)(F)F)cc4)c(NC4CC4)c3c2)c2cnnn2C)c(C)n1` (centres unmarked) [Example 144a, {2-Chloro-4-(cyclopropylamino)-3-[4-(trifluoromethyl)benzyl]quinolin-6-yl}(2,6-dimethylpyridin-3-yl)(1-methyl-1H-1,2,3-triazol-5-yl)methanol], the Kd in experiment [1] is 12 nM. In addition, in experiment [2], inhibition was half-maximal at 74 nM (IC50) and the inhibition at 6 µM worked out at 99%.

`COc1nc2ccc(C(O)(c3cncn3C)c3cncn3C)cc2c(Cl)c1Cc1ccc(C(F)(F)F)cc1` [Example 149, (4-Chloro-2-methoxy-3-(4-(trifluoromethyl)benzyl)quinolin-6-yl)bis(1-methyl-1H-imidazol-5-yl)methanol]: the Kd in experiment [1] stood at 0.34 nM. Further, in experiment [2], the 50% inhibitory concentration (IC50) is 2.4 nM and the inhibition at 6 µM turned out to be 96%.

On to `Cn1cncc1C(O)(c1ccc2nc(C(F)(F)F)c(Cc3ccccc3)c(O)c2c1)c1ccccn1` (centres unmarked) [Example 152, 3-Benzyl-6-(hydroxy(1-methyl-1H-imidazol-5-yl)(pyridin-2-yl)methyl)-2-(trifluoromethyl)quinolin-4-ol^.TFA], for which the Kd in experiment [1] is 38000 nM. Further, in experiment [2], it took 4800 nM to reach half-maximal inhibition (IC50) and the inhibition at 6 µM was determined as 70%.
